Data: patent US6204289A, “Cembranoid inhibitors of nicotinic acetylcholine receptors” (priority 1998, dated 2001)

Tested on: peripheral and neuronal AchRs
Test: Inhibition of peripheral and neuronal AchRs (summary statement)
Protocol: Cembranoids are cyclic diterpenoids naturally present in many plants and invertebrate animals. We discovered that cembranoids inhibit both peripheral and neuronal AchRs at concentrations ranging from 10^-15 molar to 10^-4 molar; cembranoids also increase the rate of receptor desensitization. Seventeen different cembranoid analogs were tested. There are two main differences between previously known AchR inhibitors and these new cembranoid inhibitors. […] Second, cembranoids are present in tobacco leaves, and therefore potentially have an effect on nicotine action in the brains of cigarette smokers. Nicotine-induced desensitization of neuronal acetylcholine receptors is related to behavioral tolerance or addiction to nicotine (6); since cembranoids increase receptor desensitization, they are likely to increase tobacco addictive properties. Thus, by extracting the cembranoids from tobacco, this could produce less addictive cigarettes (or any tobacco related product). On the other hand, addition of cembranoids to tobacco could possibly increase its addictive properties. In addition, cembranoids displace general anesthetics from the muscle-type AchR, and so they could ameliorate the undesirable side-effects of anesthesia in patients with Myasthenia gravis.
We discovered that cembranoids isolated from gorgonian-corals inhibit both peripheral and neuronal AchRs.

| Compound | potency relative to any previously known AchR inhibitors (factor) |
| --- | --- |
| C=C(C(=O)O)C1CC/C(C)=C/CC/C(C)=C/CCC2(C)OC2C1 (centres unmarked) [pseudoplexauric acid] | at least 1000 |
| eupalmerin acetate | at least 1000 |
